How the values were obtained:
[1] = Optical properties of the CypH dyes: absorbance maximum and extinction coefficient in EtOH (Table 1); type: physicochemical; conditions: for Ex Coeff (M^−1cm^−1) @ Abs Max: at absorbance maximum
Description: (§1) Characterization: All new CypH dyes were characterized by proton NMR and mass spectrometry to confirm identity. NMR data was consistent with the structure and mass spectrometry results gave the expected mass of the dye±0.5 amu. An HPLC method was developed (see below) and used to assess dye purity. […] Retention times on the column generally correlated with lipophilicity of the dyes with water soluble dyes containing sulfate groups eluting out earlier (@10.6 min for CypH-3, 6, 9) than CypH-1 (@11.9 min) and the more lipophilic dyes later. Optical properties of the dyes, acid dissociation constants and solubilities were also determined. Synthetic intermediates were also characterized by proton NMR.

[2] = Solubility of the CypH dyes (Table 1); type: physicochemical; conditions: organic solvent or mixture; in EtOH; read-out: Solubility
Description: as §1

OVASAHO cells = experiment: In vitro fluorescence microscopy and intracellular localization; type: cell-based; conditions: 2 μM, 1 hr; for Pearson value, overlap with the mitochondria tracker: co-staining with mitochondria tracker; for cellular fluorescence image in the presence of dye-containing medium (no washing): without washing
Description: Evaluation of CypH-11 in cancer cells. An ovarian cancer cell line, OVASAHO, was used to evaluate the performance of CypH-11, CypH-1, and Cy7. OVASAHO cells were incubated with the respective probe (2 μM) for 1 hr, and the cellular fluorescence images were captured in the presence of the dye-containing medium (FIG. 13A). […] This distinct difference is because of the pH sensitivity of CypH-11 and CypH-1. Both of them have low fluorescence in the cell culture medium (pH=7.4), but their fluorescence is turned on upon entering the cellular acidic compartments. […] After washing with a fresh culture medium, the cell images were captured again (FIG. 19). […] The intracellular distribution of dyes was investigated by co-staining with mitochondrial, lysosomal and nuclear trackers (FIG. 13B).
In vitro fluorescence microscopy. OVASAHO cells were used to compare the cellular performance and cellular distribution of CypH-11, CypH-1, and Cy7. OVASAHO cells (1.0×10^4) were seeded on a 96-well black plate (Corning, NY) and incubated in the supplemented medium for 24 hrs. Compounds (2 μM) were added and the cells were incubated for 1 hr. Before PBS washing, the cellular fluorescence images were captured with a fluorescence microscope (Cy7 filter, excitation: 690-730 nm and emission: 770-850 nm). After PBS washing (3×), the cellular images were captured again. For the co-localization experiment, OVASAHO cells (5.0×10^3) were incubated on a 96 well plate (ibiTreat, 180 μm coverslip, ibidi) with a clear and flat bottom. After treatment with CypH-11 (2 μM) or CypH-1 (2 μM) for 1 hr, the cells were washed with medium (3×). The cells were stained with Mitoview Green (Biotium, Parkway Fremont, CA) for 15 min or Lysoview 488 (Biotium) for 30 min. After washing with medium (3×), cells were further stained with DAPI (Invitrogen) for 10 min. The fluorescence images were captured using a fluorescence microscope (EVOS) after replacing the medium with a fresh cell culture medium. CypH-11 and CypH-1 images were obtained with a Cy7 filter, DAPI images with a DAPI filter (excitation: 352-402 nm and emission: 417-477 nm), Mitoview Green and Lysoview 488 images with a GFP filter (excitation: 457-487 nm and emission: 502-538 nm).

RFP-ovsaho tumors = experiment: In vivo imaging study, spray on about 2 mm subcutaneous RFP-ovsaho tumors (Example 1); design: species or system mice; conditions: for tumor contrast after spray: 2 μM sprayed, no washing
Description: In vivo imaging study. The animals inoculated with RFP-ovsaho cells in flank were used for the imaging study. To imitate the morphology of metastasized human ovarian cancer, the tumor size was controlled to 2 mm. The skin was removed prior to the spray of dye (2 μM, in saline). The tumor areas were sprayed and imaged using Cy7 filter set at different time points. RFP images were also acquired for tumor co-registration. The contrast ratio was calculated by [signal of tumor]/[signal of adjacent muscle]. Following the in vitro and cellular validation, we thought that the best candidate, CypH-11, which has excellent fluorescence property in different pH and in cells, could be an ideal agent to augment the detection of small cancerous lesions otherwise unnoticeable to surgeons. To verify the presumption, RFP positive ovsaho ovarian cancer cells were subcutaneously inoculated in mice. When tumors were about 2 mm in size, the skin was removed and the CypH-11 solution (2 μM in saline) was sprayed onto the tumor areas. […] The contrast continued to increase slightly and quickly reached plateau at ˜7 min. The tumor signal is about 150% higher than the adjacent muscle tissues, and the CypH-11 signal co-registered well with the RFP signal. […] In a separate set of experiment, animals were inoculated with two tumors. Each tumor was sprayed either with the prototype dye CypH-1 or CypH-11, and imaged simultaneously.

| Compound | Ex Coeff (M^−1cm^−1) @ Abs Max [1] | Abs. Max (nm) in EtOH [1] | Solubility [2] | cellular fluorescence after washing (OVASAHO cells) | Pearson value, overlap with the mitochondria tracker (OVASAHO cells) | cellular fluorescence image in the presence of dye-containing medium (no washing) (OVASAHO cells) | time to contrast plateau (RFP-ovsaho tumors; 2 μM in saline, sprayed) | tumor signal higher than the adjacent muscle tissues (RFP-ovsaho tumors; 2 μM in saline, sprayed) | time to fluorescent signal highlighting the tumor after spray (RFP-ovsaho tumors; 2 μM in saline, sprayed, about 2 mm tumors) | tumor contrast after spray (RFP-ovsaho tumors) |
| --- | --- | --- | --- | --- | --- | --- | --- | --- | --- | --- |
| CC(C)N(C)c1ccc(OC2=C(/C=C/C3=[N+](C(C)C)c4ccccc4C3(C)C)CCC/C2=C\C=C2\N(C(C)C)c3ccccc3C2(C)C)cc1.[I-] [CypH-11] | 233,800 M^−1cm^−1 | 771 nm | > 1000 µM | high fluorescence | 0.70 | Strong intracellular fluorescence and low medium fluorescence | ~7 min | about 150% | within a minute | near instant signal enhancement |
| CN(C)c1ccc(OC2=C(/C=C/C3=[N+](C)c4ccccc4C3(C)C)CCC/C2=C\C=C2\N(C)c3ccccc3C2(C)C)cc1.[Cl-] [CypH-1, reference compound] | 74,450 M^−1cm^−1 | 760 nm | > 1000 µM | high fluorescence | 0.90 | Strong intracellular fluorescence and low medium fluorescence | – | – | – | minimally contrast |

Reference: patent US20230302159A1, “COMPOUNDS AND COMPOSITIONS FOR TUMOR DETECTION AND SURGICAL GUIDANCE” (Cornell University, priority 2020, published 2023)
